In patent US20140309265A1, “MACROCYCLIC COMPOUNDS FOR INHIBITION OF INHIBITORS OF APOPTOSIS” (Ensemble Therapeutics, priority 2011, published 2014) one finds IC50 data, which are given here for four compounds.

What all share (format): binding
Test [1] has as its target N-His-Tb-BIR3(262-352, cIAP1) (Homo sapiens, UniProt Q13490). Briefly: cIAP1-BIR3 SMAC Peptide Fluorescence Polarization Assay (FPA). The settings on record: Table 3. Here is the method: C. cIAP1-BIR3SMAC Peptide Fluorescence Polarization Assay (FPA)
Assays were performed in black, round-bottom, 96-well plates. The final assay volume was 30 μL prepared from additions of N-His-Tb-BIR3(262-352, cIAP1), fluoresceinated modified SMAC peptide, and test compounds in assay buffer consisting of 20 mM Sodium Phosphate, 1 mM EDTA, 50 mM NaCl, and 0.05% Pluronic F68. The reaction was incubated at room temperature for 60 minutes and fluorescence polarization of the reaction was detected on the LJL Plate Reader. […] The final concentration of reagents in the assay was 36.1 nM N-His-Tb-BIR3(262-352, cIAP1), 1.4 nM fluoresceinated modified SMAC peptide, and 1% DMSO. […] Compounds were dissolved at 10 mM in dimethylsulfoxide (DMSO) and evaluated at eight concentrations. IC50 values were derived by non-linear regression analysis.

Test [2] has as its target N-His-Tb-BIR3(241-356, XIAP) (Homo sapiens, UniProt P98170). Briefly: XIAP-BIR3 SMAC Peptide Fluorescence Polarization Assay (FPA).
The target of test [3] is T1, XIAP His-BIR2 (124-240/C202A/C213G) (Homo sapiens, UniProt P98170, C202A/C213G).
T1 construct: additions of His-BIR2 (124-240/C202A/C213G), Biotinylated SMAC peptide
Briefly: XIAP-BIR2/SMAC Peptide AlphaScreen Assay.

The target in test [4] is T2, His-BIR2-3 (125-356, C202A/C213G, XIAP) (Homo sapiens, UniProt P98170, C202A/C213G).
T2 construct: additions of His-BIR2-3 (125-356, C202A/C213G, XIAP), fluorescein labeled dimeric SMAC peptide
The test is described as follows: XIAP-BIR2-3 Dimeric SMAC Peptide Homogeneous Time Resolved Fluorescence (HTRF) Assay. The following applies: XIAP BIR2-3, HTRF, Table 4.

The target of a further test is T3, His-BIR3 (241-356, XIAP) (Homo sapiens, UniProt P98170).
T3 construct: additions of His-BIR3 (241-356, XIAP), fluorescein labeled SMAC peptide
The test is described as follows: XIAP-BIR3/SMAC Homogeneous Time Resolved Fluorescence (HTRF) Assay. The following applies: Table 4.

Where [5] appears, read: XIAP BIR2, AlphaScreen, Table 2, read-out: BIR2 IC50.

Read-outs that look alike come from different tables or passages of the source.

T1 sequence (P98170 124-240 C202A/C213G): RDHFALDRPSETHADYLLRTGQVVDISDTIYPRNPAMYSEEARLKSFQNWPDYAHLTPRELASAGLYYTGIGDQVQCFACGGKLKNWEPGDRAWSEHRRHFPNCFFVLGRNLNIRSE
Sequence of N-His-Tb-BIR3(262-352, cIAP1) (Q13490 262-352): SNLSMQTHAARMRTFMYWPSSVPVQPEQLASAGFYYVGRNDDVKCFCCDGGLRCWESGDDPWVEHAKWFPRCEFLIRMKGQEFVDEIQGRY
Sequence of N-His-Tb-BIR3(241-356, XIAP) (P98170 241-356): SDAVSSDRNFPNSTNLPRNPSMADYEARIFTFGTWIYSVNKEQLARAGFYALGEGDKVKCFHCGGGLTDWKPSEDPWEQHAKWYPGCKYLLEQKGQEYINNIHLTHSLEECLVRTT
T2 sequence (P98170 125-356 C202A/C213G): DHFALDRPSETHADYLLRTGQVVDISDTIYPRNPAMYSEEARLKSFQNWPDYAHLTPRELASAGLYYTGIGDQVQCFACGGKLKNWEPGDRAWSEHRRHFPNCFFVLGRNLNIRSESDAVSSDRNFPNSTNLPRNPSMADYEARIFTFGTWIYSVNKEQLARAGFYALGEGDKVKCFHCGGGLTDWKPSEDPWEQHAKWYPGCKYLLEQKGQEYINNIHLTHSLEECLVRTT
T3 sequence (P98170 241-356): as the sequence (P98170 241-356) above

In the case of `CN[C@@H](C)C(=O)N[C@H](C(=O)N1C[C@@H]2C[C@H]1C(=O)N[C@@H](Cc1ccccc1)C(=O)N[C@H](C(=O)O)Cc1ccc(cc1)OCCCn1cc(nn1)-c1ccc(cc1)-c1cn(nn1)[C@H]1C[C@@H](C(=O)N[C@@H](Cc3ccccc3)C(=O)N[C@H](C(=O)O)Cc3ccc(cc3)OCCCn3cc(nn3)-c3ccc(cc3)-c3cn2nn3)N(C(=O)[C@@H](NC(=O)[C@H](C)NC)C(C)C)C1)C(C)C` [Compound 137], the IC50 was below 0.05 µM in test [1], below 0.05 µM in test [2] and below 2 µM in test [3] (setting [5]).

`CN[C@@H](C)C(=O)N[C@H](C(=O)N1C[C@@H]2C[C@H]1C(=O)N[C@@H](Cc1cccc3ccccc13)C(=O)N[C@H](C(=O)O)Cc1ccc(cc1)COc1cn(nn1)[C@H]1C[C@@H](C(=O)N[C@@H](Cc3cccc4ccccc34)C(=O)N[C@H](C(=O)O)Cc3ccc(cc3)OCc3cn2nn3)N(C(=O)[C@@H](NC(=O)[C@H](C)NC)C(C)C)C1)C(C)C` [Compound 111]: the results for the IC50 in test [1], in test [2] and in test [3] (setting [5]) were below 0.05 µM, below 0.05 µM and below 2 µM, respectively.

Regarding `CN[C@@H](C)C(=O)N[C@H](C(=O)N1C[C@@H]2C[C@H]1C(=O)N[C@@H](Cc1ccc3ccccc3c1)C(=O)N[C@H](C(=O)O)Cc1ccc(cc1)OCc1cn(nn1)[C@H]1C[C@@H](C(=O)N[C@@H](Cc3ccc4ccccc4c3)C(=O)N[C@H](C(=O)O)Cc3ccc(cc3)OCc3cn2nn3)N(C(=O)[C@@H](NC(=O)[C@H](C)NC)C(C)C)C1)C(C)C` [Compound 110], the 50% inhibitory concentration (IC50) in test [1] was below 0.05 µM; in test [2] it was below 0.05 µM; in test [3] (setting [5]) it was below 2 µM.

Consider `CN[C@@H](C)C(=O)N[C@H](C(=O)N1C[C@@H]2C[C@H]1C(=O)N[C@@H](Cc1ccc3ccccc3c1)C(=O)N[C@H](C(=O)O)Cc1ccc(cc1)OCc1cn(nn1)[C@H]1C[C@@H](C(=O)N[C@@H](Cc3ccc4ccccc4c3)C(=O)N[C@H](C(=O)NS(=O)(=O)C3CC3)Cc3ccc(cc3)OCc3cn2nn3)N(C(=O)[C@@H](NC(=O)[C@H](C)NC)C(C)(C)C)C1)C(C)(C)C` [Compound 147], for which the IC50 is below 0.05 µM in test [2]; 0.001 to 0.01 µM in test [4]; below 0.01 µM on His-BIR3 (241-356, XIAP); below 2 µM in test [3] (XIAP BIR2, Alphascreen, Table 4, read-out: BIR2 Alpha Screen IC50).
